From patent US9260425B2 (Genetech, Inc., priority 2011, dated 2016)
pKi: −log10 of the molar value.

Target: Pim-1 (Homo sapiens (Human), UniProt P11309)
Experiment: Pim kinase binding activity assay (Example 901), PIM-1 enzyme, Caliper microfluidic peptide phosphorylation
Type: biochemical
Details: 20 pM PIM-1, 10 μM ATP, 1 μM FAM-peptide, 90 minutes at room temperature
Experimental: Pim Kinase Binding Activity
A fluorescent-labeled Pim-specific peptide substrate, was custom synthesized by American Peptide Company (Sunnyvale, Calif.). Reaction Buffer contained 10 mM HEPES, pH 7.2, 10 mM MgCl2, 0.01% Tween 20, 2 mM DTT. Termination Buffer contained 190 mM HEPES, pH 7.2, 0.015% Brij-35, 0.2% Coating Reagent 3 (Caliper Life Sciences, Hopkinton, Mass.), 20 mM EDTA. Separation Buffer contained 100 mM HEPES, pH 7.2, 0.015% Brij-35, 0.1% Coating Reagent 3, 1:200 Coating Reagent 8 (Caliper Life Sciences, Hopkinton, Mass.), 10 mM EDTA and 5% DMSO.
PIM reactions were carried out in a final volume of 10 μL per well in a 384-well plate. A standard enzymatic reaction, initiated by the addition of 5 μL 2×ATP and test compound to 5 μL of 2× enzyme and FAM-peptide, contained 20 pM PIM-1, 50 pM PIM-2, or 55 pM PIM-3, 1 μM FAM-peptide, and 10 μM ATP, in Reaction Buffer. After 90 minutes of incubation at room temperature, the phosphorylation reaction was stopped by the addition of 10 μL Termination Buffer. The product and substrate in each independent reaction were separated on a 12-sipper microfluidic chip (Caliper Life Sciences, Hopkinton, Mass.) run on a Caliper LC3000® (Caliper Life Sciences, Hopkinton, Mass.). The separation of product and substrate was optimized by choosing voltages and pressure using Caliper's Optimizer software (Hopkinton, Mass.). […] The product and substrate fluorophore were excited at 488 nm and detected at 530 nm. Substrate conversion was calculated from the electropherogram using HTS Well Analyzer software (Caliper Life Sciences, Hopkinton, Mass.). Ki values for the test compound were calculated.

Sequence of Pim-1 (P11309 whole entry): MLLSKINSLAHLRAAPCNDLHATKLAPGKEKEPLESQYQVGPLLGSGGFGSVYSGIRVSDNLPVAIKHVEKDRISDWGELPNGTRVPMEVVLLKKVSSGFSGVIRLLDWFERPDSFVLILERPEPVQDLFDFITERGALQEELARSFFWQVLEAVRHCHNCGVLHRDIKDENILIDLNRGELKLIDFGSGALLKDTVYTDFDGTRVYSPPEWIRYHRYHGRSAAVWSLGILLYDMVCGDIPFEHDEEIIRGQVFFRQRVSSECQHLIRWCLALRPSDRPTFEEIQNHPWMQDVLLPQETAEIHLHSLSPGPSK

Row | Structure (SMILES) | pKi
1 | CN1CC(c2cc3c(-c4ccccc4)n[nH]c3cn2)=CC1=O [Example 259, 1-methyl-4-(3-phenyl-1H-pyrazolo[3,4-c]pyridin-5-yl)-1H-pyrrol-2(5H)-one] | 6.04
2 | Cc1n[nH]c2cnc(-c3cnccc3N3CCC[C@@H](N)C3)cc12 [Example 119, (R)-1-(3-(3-methyl-1H-pyrazolo[3,4-c]pyridin-5-yl)pyridin-4-yl)piperidin-3-amine] | 5.96
3 | C=Cc1ccc(-c2n[nH]c3cnc(-c4cnn(C)c4)cc23)nc1N1CCC[C@H](N)C1 [Example 412, (S)-1-(6-(5-(1-methyl-1H-pyrazol-4-yl)-1H-pyrazolo[3,4-c]pyridin-3-yl)-3-vinylpyridin-2-yl)piperidin-3-amine] | 10.44
4 | CNC(=O)C1(N)CCN(c2cccc(-c3n[nH]c4cnc(-c5cccnc5)cc34)n2)CC1 [Example 236, 4-amino-N-methyl-1-(6-(5-(pyridin-3-yl)-1H-pyrazolo[3,4-c]pyridin-3-yl)pyridin-2-yl)piperidine-4-carboxamide] | 9.45
5 | Cc1n[nH]c2cnc(-c3cncc(N4CCC(N)CC4)n3)cc12 [Example 110, 1-(6-(3-methyl-1H-pyrazolo[3,4-c]pyridin-5-yl)pyrazin-2-yl)piperidin-4-amine] | 8.24
6 | CC(C)n1cc(-c2cc3c(-c4cccc(N5CCNCC5)n4)n[nH]c3cn2)cn1 [Example 389, 5-(1-isopropyl-1H-pyrazol-4-yl)-3-(6-(piperazin-1-yl)pyridin-2-yl)-1H-pyrazolo[3,4-c]pyridine] | 9.67
7 | Cc1ccc(-c2n[nH]c3cnc(-c4cnn(C)c4)cc23)nc1N1CC(N2CCNC(=O)C2)C1 [Example 425, 4-(1-(3-methyl-6-(5-(1-methyl-1H-pyrazol-4-yl)-1H-pyrazolo[3,4-c]pyridin-3-yl)pyridin-2-yl)azetidin-3-yl)piperazin-2-one] | 9.21
8 | N[C@@H]1CCC[C@H](Nc2cccc(-c3n[nH]c4cnc(-c5cccnc5)cc34)n2)C1 [Example 341, (1S,3R)-N1-(6-(5-(pyridin-3-yl)-1H-pyrazolo[3,4-c]pyridin-3-yl)pyridin-2-yl)cyclohexane-1,3-diamine] | 10.11
9 | CCn1cc(-c2cc3c(-c4cccc(N5CCCCC(O)C5)n4)n[nH]c3cn2)cn1 (stereo not shown) [Example 494, 1-(6-(5-(1-ethyl-1H-pyrazol-4-yl)-1H-pyrazolo[3,4-c]pyridin-3-yl)pyridin-2-yl)azepan-3-ol] | 9.91
10 | N#Cc1cc(-c2n[nH]c3cnc(-c4cccnc4)cc23)cc(N2CCNCC2)c1 [Example 240, 3-(piperazin-1-yl)-5-(5-(pyridin-3-yl)-1H-pyrazolo[3,4-c]pyridin-3-yl)benzonitrile] | 8.28
11 | O=C1CCCCN1c1n[nH]c2cnc(-c3cccnc3)cc12 [Example 260, 1-(5-(pyridin-3-yl)-1H-pyrazolo[3,4-c]pyridin-3-yl)piperidin-2-one] | 5.96
12 | CCn1cc(-c2cc3c(-c4ccc(Br)c(N5C[C@H](N)C[C@@H](F)C5)n4)n[nH]c3cn2)cn1 [Example 455, (3R,5R)-1-(3-bromo-6-(5-(1-ethyl-1H-pyrazoI-4-yl)-1H-pyrazolo[3,4-c]pyridin-3-yl)pyridin-2-yl)-5-fluoropiperidin-3-amine] | 10.55
13 | Cc1ccc(-c2n[nH]c3cnc(-c4cccnc4)cc23)nc1N1CC[C@H](N)C1 [Example 317, (S)-1-(3-methyl-6-(5-(pyridin-3-yl)-1H-pyrazolo[3,4-c]pyridin-3-yl)pyridin-2-yl)pyrrolidin-3-amine] | 10.23
14 | c1cncc(-c2cc3c(-c4cncc(NC5CCNCC5)c4)n[nH]c3cn2)c1 [Example 170, N-(piperidin-4-yl)-5-(5-(pyridin-3-yl)-1H-pyrazolo[3,4-c]pyridin-3-yl)pyridin-3-amine] | 9.35

Continued by rising pKi, values first:

Row | pKi | Structure (SMILES)
15 | 6.07 | Cc1n[nH]c2cnc(-c3cnn(C4COC4)c3)cc12 [Example 114, 3-methyl-5-(1-(oxetan-3-yl)-1H-pyrazol-4-yl)-1H-pyrazolo[3,4-c]pyridine]
16 | 6.52 | Cc1n[nH]c2cnc(-c3cn[nH]c3)cc12 [Example 102, 3-methyl-5-(1H-pyrazol-4-yl)-1H-pyrazolo[3,4-c]pyridine]
17 | 7.38 | c1ccc(-c2n[nH]c3cnc(-c4cnccn4)cc23)cc1 [Example 214, 3-phenyl-5-(pyrazin-2-yl)-1H-pyrazolo[3,4-c]pyridine]
18 | 7.65 | N#Cc1cc2c(-c3cccc(N4CCC[C@H](N)C4)n3)n[nH]c2cn1 [Example 399, (S)-3-(6-(3-aminopiperidin-1-yl)pyridin-2-yl)-1H-pyrazolo[3,4-c]pyridine-5-carbonitrile]
19 | 7.75 | NC(=O)Cn1cc(-c2cc3c(-c4cccc(F)n4)n[nH]c3cn2)cn1 [Example 178, 2-(4-(3-(6-fluoropyridin-2-yl)-1H-pyrazolo[3,4-c]pyridin-5-yl)-1H-pyrazol-1-yl)acetamide]
20 | 7.78 | O=C(NC1CNC1)c1cccc(-c2n[nH]c3cnc(-c4cccnc4)cc23)n1 [Example 329, N-(azetidin-3-yl)-6-(5-(pyridin-3-yl)-1H-pyrazolo[3,4-c]pyridin-3-yl)picolinamide]
21 | 7.86 | N[C@H]1CCCN(c2cccc(-c3n[nH]c4cnc(N5CCNC(=O)C5)cc34)n2)C1 [Example 345, (S)-4-(3-(6-(3-aminopiperidin-1-yl)pyridin-2-yl)-1H-pyrazolo[3,4-c]pyridin-5-yl)piperazin-2-one]
22 | 8.01 | O=C1N(CC2CCNCC2)CCN1c1n[nH]c2cnc(-c3cccnc3)cc12 [Example 296, 1-(piperidin-4-ylmethyl)-3-(5-(pyridin-3-yl)-1H-pyrazolo[3,4-c]pyridin-3-yl)imidazolidin-2-one]
23 | 8.16 | Cc1n[nH]c2cnc(-c3cncc(N4CCC[C@@H](N)C4)n3)cc12 [Example 121, (R)-1-(6-(3-methyl-1H-pyrazolo[3,4-c]pyridin-5-yl)pyrazin-2-yl)piperidin-3-amine]
24 | 9.21 | Fc1ccccc1-c1n[nH]c2cnc(-c3cnccc3OCC3CCNCC3)cc12 [Example 155, 3-(2-fluorophenyl)-5-(4-(piperidin-4-ylmethoxy)pyridin-3-yl)-1H-pyrazolo[3,4-c]pyridine]
25 | 9.50 | c1cncc(-c2cc3c(-c4ccn(C5CCNCC5)n4)n[nH]c3cn2)c1 [Example 215, 3-(1-(piperidin-4-yl)-1H-pyrazol-3-yl)-5-(pyridin-3-yl)-1H-pyrazolo[3,4-c]pyridine]
26 | 9.79 | OCCN1CCN(c2cccc(-c3n[nH]c4cnc(-c5cccnc5)cc34)n2)CC1 [Example 282, 2-(4-(6-(5-(pyridin-3-yl)-1H-pyrazolo[3,4-c]pyridin-3-yl)pyridin-2-yl)piperazin-1-yl)ethanol]
27 | 9.83 | OC1CCN(c2cccc(-c3n[nH]c4cnc(-c5cccnc5)cc34)n2)CC1 [Example 272, 1-(6-(5-(pyridin-3-yl)-1H-pyrazolo[3,4-c]pyridin-3-yl)pyridin-2-yl)piperidin-4-ol]
28 | 9.91 | Cn1cc(-c2cc3c(-c4cccc(N5C[C@@H](N)C[C@@H](F)C5)n4)n[nH]c3cn2)cn1 [Example 495, (3S,5R)-5-fluoro-1-(6-(5-(1-methyl-1H-pyrazol-4-yl)-1H-pyrazolo[3,4-c]pyridin-3-yl)pyridin-2-yl)piperidin-3-amine]
29 | 10.13 | c1cc(-c2n[nH]c3cnc(-c4cncs4)cc23)nc(N2CCNCC2)c1 [Example 359, 5-(3-(6-(piperazin-1-yl)pyridin-2-yl)-1H-pyrazolo[3,4-c]pyridin-5-yl)thiazole]
30 | 10.34 | N[C@@H]1CN(c2cccc(-c3n[nH]c4cnc(-c5cccnc5)cc34)n2)CC[C@@H]1F (relative stereo) [Example 452, cis-4-fluoro-1-(6-(5-(pyridin-3-yl)-1H-pyrazolo[3,4-c]pyridin-3-yl)pyridin-2-yl)piperidin-3-amine]
31 | 10.35 | C[C@]1(N)CCCN(c2cccc(-c3n[nH]c4cnc(-c5cccnc5)cc34)n2)C1 [Example 343, (S)-3-methyl-1-(6-(5-(pyridin-3-yl)-1H-pyrazolo[3,4-c]pyridin-3-yl)pyridin-2-yl)piperidin-3-amine]
32 | 10.52 | NCC[C@@H]1CCCN(c2cccc(-c3n[nH]c4cnc(-c5cccnc5)cc34)n2)C1 [Example 242, (S)-2-(1-(6-(5-(pyridin-3-yl)-1H-pyrazolo[3,4-c]pyridin-3-yl)pyridin-2-yl)piperidin-3-yl)ethanamine]
33 | 10.66 | FC(F)(F)Cn1cc(-c2cc3c(-c4cccc(N5CCNCC5)n4)n[nH]c3cn2)cn1 [Example 488, 3-(6-(piperazin-1-yl)pyridin-2-yl)-5-(1-(2,2,2-trifluoroethyl)-1H-pyrazol-4-yl)-1H-pyrazolo[3,4-c]pyridine]
34 | 10.89 | Cc1ccc(-c2n[nH]c3cnc(-c4cnn(C)c4)cc23)nc1N1CCC[C@H](N)C1 [Example 433, (S)-1-(3-methyl-6-(5-(1-methyl-1H-pyrazol-4-yl)-1H-pyrazolo[3,4-c]pyridin-3-yl)pyridin-2-yl)piperidin-3-amine]
